Measured values reported in publication PMC13470012, “Long-term inhibition of lysosomal glucocerebrosidase activity promotes GPX4 stability and inhibits ferroptosis in dopaminergic neurons” (Cell Death & Disease, 2026).

Biological target: T1, lysosomal glucocerebrosidase (Homo sapiens, UniProt P04062)
T1 construct: gene GBA1
T1 sequence (P04062 40-536): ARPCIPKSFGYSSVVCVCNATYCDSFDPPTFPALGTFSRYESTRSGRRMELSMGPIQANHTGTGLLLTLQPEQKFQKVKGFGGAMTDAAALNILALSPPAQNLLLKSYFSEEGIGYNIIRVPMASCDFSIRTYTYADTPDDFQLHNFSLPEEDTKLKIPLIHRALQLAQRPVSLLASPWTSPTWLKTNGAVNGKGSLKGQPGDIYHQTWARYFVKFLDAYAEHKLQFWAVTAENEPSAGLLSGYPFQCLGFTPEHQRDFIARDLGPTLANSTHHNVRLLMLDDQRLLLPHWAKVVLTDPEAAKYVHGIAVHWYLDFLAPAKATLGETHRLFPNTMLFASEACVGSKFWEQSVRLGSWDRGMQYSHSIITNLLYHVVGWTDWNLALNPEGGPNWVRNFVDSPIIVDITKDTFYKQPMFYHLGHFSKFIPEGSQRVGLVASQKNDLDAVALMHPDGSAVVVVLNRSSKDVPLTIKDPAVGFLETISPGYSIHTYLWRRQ
Test: fluorogenic (4-methylumbelliferone) glucocerebrosidase activity assay in lysates of CBE-treated human LUHMES cells, […] h dose range
Type: cell-based

O[C@H]1[C@H](O)[C@@H](O)[C@@H]2O[C@@H]2[C@@H]1O [conduritol-beta-epoxide]
IC50: ~9 µM
